# In US8153808B2, “Dihydropyridone amides as P2X7 modulators” (Roche Palo Alto LLC, priority 2008, dated 2012):
# Biological target: T1, P2X7 (UniProt Q99572)
# T1 sequence (Q99572 1-595): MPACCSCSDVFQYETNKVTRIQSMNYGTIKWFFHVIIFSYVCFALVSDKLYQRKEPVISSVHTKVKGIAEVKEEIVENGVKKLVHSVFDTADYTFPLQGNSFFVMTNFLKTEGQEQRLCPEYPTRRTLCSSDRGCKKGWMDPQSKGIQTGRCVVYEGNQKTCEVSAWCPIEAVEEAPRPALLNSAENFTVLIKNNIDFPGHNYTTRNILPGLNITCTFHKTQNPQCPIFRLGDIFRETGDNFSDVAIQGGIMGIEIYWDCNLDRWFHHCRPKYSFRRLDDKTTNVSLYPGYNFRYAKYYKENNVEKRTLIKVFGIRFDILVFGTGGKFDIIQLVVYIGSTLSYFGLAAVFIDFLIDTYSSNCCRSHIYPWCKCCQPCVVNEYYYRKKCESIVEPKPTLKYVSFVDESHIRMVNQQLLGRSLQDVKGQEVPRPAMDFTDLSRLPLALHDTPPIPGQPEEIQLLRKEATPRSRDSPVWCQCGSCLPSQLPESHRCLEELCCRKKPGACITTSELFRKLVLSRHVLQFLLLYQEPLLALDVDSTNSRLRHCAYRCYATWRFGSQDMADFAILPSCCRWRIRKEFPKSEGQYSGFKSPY
# Test: pIC50 values for P2X7 (Table 1)
# Assay type: cell-based
# Experimental: Intracellular Calcium Flux (FLIPR) Assay
# Stock solutions of compounds were prepared from powders as a 10 mM DMSO stock solution. These solutions were stored at RT during the two week period of these experiments to prevent freeze-thaw of the DMSO stocks. The DMSO stocks were added to the appropriate assay buffer at a concentration of 10 μM, and then diluted serially to the final concentrations that were tested. […] The aqueous solutions of compounds as well as ATP (Sigma A7699) and BzATP (Sigma B6396) were prepared fresh for each day of experiment.
# 1321N1 cells stably expressing the full length human P2X7 gene (1321N1-hP2X7) and HEK293 cells stably expressing the full length rat P2X7 gene (HEK293-rP2X7) were obtained from the Roche Cell Culture Facility. 1321N1-hP2X7 cells were grown in Dulbecco's Modified Eagle's Medium (DMEM) high glucose supplemented with 10% FBS and 250 μg/mL G418. HEK293-rP2X7 cells were grown in DMEM/F-12 supplemented with 10% FBS, 1 mM CaCl2, 2 mM MgCl2, 2 mM L-Glutamine and 500 μg/ml G418. Cells were split such that they never became >70% confluent.
# On the day prior to the experiment, 1321N1-hP2X7 or HEK293-rP2X7 cells were released into suspension with calcium-free PBS+Versene and washed by centrifugation with calcium-free PBS to remove the Versene. Cells were resuspended in growth medium at a density of 2.5×10^5 cells/mL and seeded into black walled, clear bottom 96 well plates (50,000 cells/well) approximately 18 hr prior to intracellular calcium flux experiments.
# On the day of the experiment, plates were washed with FLIPR buffer (calcium- and magnesium-free Hank's Balanced Salt Solution (HBSS) supplemented with 10 mM Hepes, 2.5 mM probenecid and 2 mM calcium chloride) using a BIO-TEK 96 channel plate washer and incubated with […] fluo-3 dye at 37° C. for one hr. The dye was then removed by plate washing and the cells were allowed to equilibrate for 20 min at room temperature with antagonist or vehicle (FLIPR buffer). Agonist (100 μM BzATP final concentration for hP2X7; 5 μM BzATP final concentration or rP2X7) was added online with the FLIPR and fluorescence measurements made at 1 sec intervals for 60 sec followed by 3 sec intervals for a further 4 min (5 min total). A final addition of 5 μM ionomycin was made and the maximal BzATP-evoked fluorescence normalized to the maximal ionomycin-evoked fluorescence.
row,pIC50 P2X7,SMILES
1,6.006,"COc1ccc(CC(=O)N2C=CC(=O)C[C@H]2c2cccc(F)c2)cc1OC [Compound 45, (S)-1-[2-(3,4-Dimethoxy-phenyl)-acetyl]-2-(3-fluoro-phenyl)-2,3-dihydro-1H-pyridin-4-one]"
2,7.94,"COc1cc(Br)c(CC(=O)N2C=CC(=O)C[C@H]2c2cccc(F)c2)cc1OC [Compound 41, (S)-1-[2-(2-Bromo-4,5-dimethoxy-phenyl)-acetyl]-2-(3-fluoro-phenyl)-2,3-dihydro-1H-pyridin-4-one]"
3,6.17,"COc1cc(CC(=O)N2C=CC(=O)CC2c2ccc(F)cc2)c(Br)cc1Cl (centres unmarked) [Compound 32, 1-[2-(2-Bromo-4-chloro-5-methoxy-phenyl)-acetyl]-2-(4-fluoro-phenyl)-2,3-dihydro-1H-pyridin-4-one]"
4,7.65,"O=C1C=CN(C(=O)Cc2cc(OCCO)c(F)cc2Br)[C@H](c2cccc(F)c2)C1 [Compound 50, (S)-1-{2-[2-Bromo-4-fluoro-5-(2-hydroxy-ethoxy)-phenyl]-acetyl}-2-(3-fluoro-phenyl)-2,3-dihydro-1H-pyridin-4-one]"
5,7.89,"COCCOc1cc(CC(=O)N2C=CC(=O)C[C@H]2c2ccc(F)cc2)c(Br)cc1F [Compound 43, (S)-1-{2-[2-Bromo-4-fluoro-5-(2-methoxy-ethoxy)-phenyl]-acetyl}-2-(4-fluoro-phenyl)-2,3-dihydro-1H-pyridin-4-one]"
6,5.843,"COc1ccc(CC(=O)N2C=CC(=O)CC2c2ccc(F)cc2)c(OC)c1 (centres unmarked) [Compound 40, 1-[2-(2,4-Dimethoxy-phenyl)-acetyl]-2-(4-fluoro-phenyl)-2,3-dihydro-1H-pyridin-4-one]"
7,5.45,"COc1cc(Br)c(CC(=O)N2C=CC(=O)CC2c2cccc(C#N)c2)cc1OC (centres unmarked) [Compound 39, 3-{1-[2-(2-Bromo-4,5-dimethoxy-phenyl)-acetyl]-4-oxo-1,2,3,4-tetrahydro-pyridin-2-yl}-benzonitrile]"
8,7.12,"Cc1cc(F)c(OCCO)cc1CC(=O)N1C=CC(=O)C[C@H]1c1ccc(F)cc1 [Compound 49, (S)-1-{2-[4-Fluoro-5-(2-hydroxy-ethoxy)-2-methyl-phenyl]-acetyl}-2-(4-fluoro-phenyl)-2,3-dihydro-1H-pyridin-4-one]"
9,7.77,"COc1cc(Cl)c(CC(=O)N2C=CC(=O)C[C@H]2c2ccc(F)cc2)cc1OC [Compound 51, (S)-1-[2-(2-Chloro-4,5-dimethoxy-phenyl)-acetyl]-2-(4-fluoro-phenyl)-2,3-dihydro-1H-pyridin-4-one]"
10,5.325,"COc1cc(Br)c(CC(=O)N2C=CC(=O)CC2c2ccc(C)cc2)cc1OC (centres unmarked) [Compound 38, 1-[2-(2-Bromo-4,5-dimethoxy-phenyl)-acetyl]-2-p-tolyl-2,3-dihydro-1H-pyridin-4-one]"
11,6.003,"COc1ccc(CC(=O)N2C=CC(=O)C[C@H]2c2ccc(F)cc2)cc1OC [Compound 44, (S)-1-[2-(3,4-Dimethoxy-phenyl)-acetyl]-2-(4-fluoro-phenyl)-2,3-dihydro-1H-pyridin-4-one]"
12,5.995,"COc1ccc(OC)c(CC(=O)N2C=CC(=O)CC2c2ccc(F)cc2)c1 (centres unmarked) [Compound 42, 1-[2-(2,5-Dimethoxy-phenyl)-acetyl]-2-(4-fluoro-phenyl)-2,3-dihydro-1H-pyridin-4-one]"
13,7.55,"COc1cc(CC(=O)N2C=CC(=O)C[C@H]2c2ccc(F)cc2)c(Br)cc1F [Compound 36, (S)-1-[2-(2-Bromo-4-fluoro-5-methoxy-phenyl)-acetyl]-2-(4-fluoro-phenyl)-2,3-dihydro-1H-pyridin-4-one]"

# Second part, the compound before the results:
row,SMILES,pIC50 P2X7
1,"COc1cc(CC(=O)N2C=CC(=O)C[C@H]2c2ccc(F)cc2)c(Br)cc1C [Compound 29, (S)-1-[2-(2-Bromo-5-methoxy-4-methyl-phenyl)-acetyl]-2-(4-fluoro-phenyl)-2,3-dihydro-1H-pyridin-4-one]",6.625
2,"COc1cc(I)c(CC(=O)N2C=CC(=O)C[C@H]2c2ccccc2)cc1OC [Compound 4, (S)-1-[2-(2-Iodo-4,5-dimethoxy-phenyl)-acetyl]-2-phenyl-2,3-dihydro-1H-pyridin-4-one]",7.418
3,"CCOc1cc(CC(=O)N2C=CC(=O)C[C@H]2c2ccc(F)cc2)c(Br)cc1OC [Compound 16, (S)-1-[2-(2-Bromo-5-ethoxy-4-methoxy-phenyl)-acetyl]-2-(4-fluoro-phenyl)-2,3-dihydro-1H-pyridin-4-one]",7.17
4,"COc1ccc(Br)c(CC(=O)N2C=CC(=O)CC2c2ccccc2)c1 (centres unmarked) [Compound 7, 1-[2-(2-Bromo-5-methoxy-phenyl)-acetyl]-2-phenyl-2,3-dihydro-1H-pyridin-4-one]",6.765
5,"COc1cc(Br)c(CC(=O)N2C=CC(=O)CC2C2CCCC2)cc1OC (centres unmarked) [Compound 27, 1-[2-(2-Bromo-4,5-dimethoxy-phenyl)-acetyl]-2-cyclopentyl-2,3-dihydro-1H-pyridin-4-one]",6.35
6,"COc1cc(I)c(CC(=O)N2C=CC(=O)C[C@@H]2c2ccccc2)cc1OC [Compound 5, (R)-1-[2-(2-Iodo-4,5-dimethoxy-phenyl)-acetyl]-2-phenyl-2,3-dihydro-1H-pyridin-4-one]",5.425
7,"COc1cc(Cl)c(CC(=O)N2C=CC(=O)CC2c2ccccc2)cc1OC (centres unmarked) [Compound 11, 1-[2-(2-Chloro-4,5-dimethoxy-phenyl)-acetyl]-2-phenyl-2,3-dihydro-1H-pyridin-4-one]",6.806
8,"COc1cc(Br)c(CC(=O)N2C=CC(=O)C[C@H]2c2ccc(F)cc2)cc1OC [Compound 19, (S)-1-[2-(2-Bromo-4,5-dimethoxy-phenyl)-acetyl]-2-(4-fluoro-phenyl)-2,3-dihydro-1H-pyridin-4-one]",7.6125
9,"O=C1C=CN(C(=O)Cc2cc3c(cc2Br)OCCO3)C(c2ccccc2)C1 (centres unmarked) [Compound 12, 1-[2-(7-Bromo-2,3-dihydro-benzo[1,4]dioxin-6-yl)-acetyl]-2-phenyl-2,3-dihydro-1H-pyridin-4-one]",5.305
10,"COc1cc(Br)c(CC(=O)N2C=CC(=O)C[C@H]2c2ccc(F)cc2)cc1OCC1CC1 [Compound 18, (S)-1-[2-(2-Bromo-5-cyclopropylmethoxy-4-methoxy-phenyl)-acetyl]-2-(4-fluoro-phenyl)-2,3-dihydro-1H-pyridin-4-one]",6.93
11,"CCOc1cc(Br)c(CC(=O)N2C=CC(=O)C[C@H]2c2ccc(F)cc2)cc1OC [Compound 17, (S)-1-[2-(2-Bromo-4-ethoxy-5-methoxy-phenyl)-acetyl]-2-(4-fluoro-phenyl)-2,3-dihydro-1H-pyridin-4-one]",6.535
12,"COc1cc(Br)c(CC(=O)N2C=CC(=O)CC2c2ccc(F)cc2)cc1OC (centres unmarked) [Compound 22, 1-[2-(2-Bromo-4,5-dimethoxy-phenyl)-acetyl]-2-(4-fluoro-phenyl)-2,3-dihydro-1H-pyridin-4-one]",7.165
13,"COc1cc(I)c(CC(=O)N2C=CC(=O)CC2c2ccccc2C)cc1OC (centres unmarked) [Compound 2, 1-[2-(2-Iodo-4,5-dimethoxy-phenyl)-acetyl]-2-o-tolyl-2,3-dihydro-1H-pyridin-4-one]",5.963
14,"COc1cc(Br)c(CC(=O)N2C=CC(=O)CC2C2CCCCC2)cc1OC (centres unmarked) [Compound 10, 1-[2-(2-Bromo-4,5-dimethoxy-phenyl)-acetyl]-2-cyclohexyl-2,3-dihydro-1H-pyridin-4-one]",7.193
15,"COc1ccc(CC(=O)N2C=CC(=O)CC2c2ccccc2)c(Br)c1 (centres unmarked) [Compound 8, 1-[2-(2-Bromo-4-methoxy-phenyl)-acetyl]-2-phenyl-2,3-dihydro-1H-pyridin-4-one]",5.685
16,"COc1cc(CC(=O)N2C=CC(=O)CC2c2ccccc2)c(C(F)(F)F)cc1OC (centres unmarked) [Compound 15, 1-[2-(4,5-Dimethoxy-2-trifluoromethyl-phenyl)-acetyl]-2-phenyl-2,3-dihydro-1H-pyridin-4-one]",5.395
